Data published in US20200360405A1, “COMPOSITIONS AND METHODS FOR REDUCING LOCAL AND SYSTEMIC RISKS OF ENVENOMATION” (THE HENRY M. JACKSON FONDATION FOR THE ADVANCEMENT OF …, priority 2017, published 2020).

What was measured:
[1] = tested on: V. russelli crude venom PLA2; test: Phospholipase A2 activity assay (EnzChek), V. russelli crude venom; type: biochemical, Vipera russelli; settings: for Effect on V. russelli venom PLA2 activity (in words): venom pre-incubated 5-10 minutes with increasing concentrations, Example 2; for IC50 / PLA2 ≥90% inhibition (concentration), V. russelli venom: 0.2 μg venom, 10 minute time point, Example 1
Procedure: (§1) EnzChek® Phospholipase A 2 assay kits were used according to the manufacturer's recommendations. Briefly, equal volumes of venom solutions were incubated with PLA2 substrate and fluorometric analysis was performed over the course of 20 minutes. Venom activity was determined by creating a standard curve based upon PLA2 from honey bee venom.
(§2) For inhibition experiments, 0.4 μg N. kaouthia or 0.2 μg V. russelli venom was pre-incubated with the specified spreading factor inhibitor(s) for 5-10 minutes before adding the reaction to an equal volume of PLA2 substrate. Fluorometric analysis was performed over 20 minutes, with the 10 minute time point values being used to determine the percent inhibition. Background values were subtracted from all samples, and data was normalized to the venom-only controls. Excitation and emission wavelengths for these experiments were 485(20) nm and 528(20) nm, respectively.
(§3) Data are shown as the mean and standard deviation (SD) of at least duplicate readings. The half maximal inhibitory concentration (IC50) values were determined using GraphPad Prism. Table 1 summarizes the inhibitory activity of various spreading factor inhibitors for N. kaouthia and V. russelli crude venom extracts.
(§4) Snake venom samples were incubated with increasing concentrations of sodium aurothiomalate and/or doxycycline for 5-10 minutes prior to assaying the venom hyaluronidase, gelatinase, and PLA2 activities. As observed in Example 1, sodium aurothiomalate inhibited N. kaouthia and V. russeiii venom hyaluronidase activities, whereas doxycycline inhibited the venom gelatinase and PLA2 activities.

[2] = biological target: V. russelli crude venom gelatinase; test: Gelatinase activity assay (EnzChek), V. russelli crude venom; type: biochemical, Vipera russelli
Procedure: (§5) EnzChek® Gelatinase/Collagenase assay kits were used according to the manufacturer's recommendations. Briefly, equal volumes of venom solutions were incubated with 1.0 mg/mL DQ gelatin and fluorometric analysis was performed for at least three hours, using excitation and emission wavelengths of 485(20) nm and 528(20) nm, respectively. Venom activity was determined by creating a standard curve with Clostridium histolyticum collagenase activity.
(§6) For inhibition experiments, 30 μg N. kaouthia or V. russelli venom was pre-incubated with the specified spreading factor inhibitor(s) for 5-10 minutes before adding an equal volume of the reaction to the 1.0 mg/mL DQ gelatin solution. Fluorometric readings were measured over the course of five hours, with the five hour time points being used to determine the percent inhibition. Data was adjusted for background signals and then normalized to the venom-only controls.
as §3, §4

[3] = biological target: N. kaouthia crude venom hyaluronidase; test: Hyaluronidase activity assay, N. kaouthia crude venom; type: biochemical, Naja naja kaouthia; settings: for Effect on N. kaouthia venom hyaluronidase activity (in words): venom pre-incubated 5-10 minutes with increasing concentrations, Example 2
Procedure: (§7) Hyaluronidase activity was assessed using the Enzymatic Assay of Hyaluronidase (3.2.1.35) protocol from Sigma Aldrich. Briefly, equal volumes of venom were incubated with 0.03% hyaluronic acid solution (0.03% (w/v) hyaluronic acid in 300 mM sodium phosphate (approximately pH 5.35)) for 1.5 hours at 37° C. A reaction aliquot was then added to a 5-fold volume of acidic albumin solution (24 mM sodium acetate, 70 mM acetic acid, 0.1% BSA adjusted to approximately pH 3.75), allowed to stand for 10 minutes, and then absorbance at 600 nm was measured. Data was converted to percent transmission (% T) and adjusted for background signals. Venom hyaluronidase activities were determined by creating a standard curve with bovine testes hyaluronidase.
(§8) For inhibition experiments, 6.75 μg N. kaouthia or 15 μg V. russelli venom was pre-incubated with the specified spreading factor inhibitor(s) for 5-10 minutes before adding an equal volume of the reaction to the hyaluronic acid solution. Data was converted to % T, adjusted for background signals, and then normalized to the venom-only controls.
as §3, §4

[4] = tested on: N. kaouthia crude venom PLA2; test: Phospholipase A2 activity assay (EnzChek), N. kaouthia crude venom; type: biochemical, Naja naja kaouthia; settings: for Effect on N. kaouthia venom PLA2 activity (in words): venom pre-incubated 5-10 minutes with increasing concentrations, Example 2; for IC50 / PLA2 ≥90% inhibition (concentration), N. kaouthia venom: 0.4 μg venom, 10 minute time point, Example 1
Procedure: as §1, §2, §3, §4

[5] = biological target: V. russelli crude venom hyaluronidase; test: Hyaluronidase activity assay, V. russelli crude venom; type: biochemical, Vipera russelli; settings: for Effect on V. russelli venom hyaluronidase activity (in words): venom pre-incubated 5-10 minutes with increasing concentrations, Example 2
Procedure: as §7, §8, §3, §4

[6] = biological target: N. kaouthia crude venom gelatinase; test: Gelatinase activity assay (EnzChek), N. kaouthia crude venom; type: biochemical, Naja naja kaouthia
Procedure: as §5, §6, §3, §4

[7] = 30 μg venom, five hour time point, Example 1
[8] = venom pre-incubated 5-10 minutes with increasing concentrations, Example 2
[9] = 6.75 μg venom, pre-incubation 5-10 min, Example 1
[10] = 15 μg venom, pre-incubation 5-10 min, Example 1
[11] = asterisk: data obtained according to Example 2, five hour time point

Question: `CC(=O)N[C@@H](CS)C(=O)O` [N-acetyl-L-cysteine] was tested. Which “Enhancement of PLA2 activities in V. russelli venom” value ([1]; N-acetyl-L-cysteine alone) did it give?
Answer: 3-4 fold

Question: What about the “Effect on V. russelli venom PLA2 activity (in words)” value [1] of the same molecule?
Answer: consistently enhanced

Question: What about the “Gelatinase IC50, V. russelli venom” value [2, 7] of the same molecule?
Answer: 1870 µg/mL

Question: What about the “Gelatinase ≥90% inhibition (concentration), V. russelli venom” value [2, 7] of the same molecule?
Answer: 2.31 mg/mL

Question: What about the “Effect on V. russelli venom gelatinase activity (in words)” value [2, 8] of the same molecule?
Answer: inhibited

Question: And the “Hyaluronidase IC50, N. kaouthia venom” value [3, 9]?
Answer: 4503 µg/mL

Question: And the “Hyaluronidase ≥90% inhibition (concentration), N. kaouthia venom” value [3, 9]?
Answer: 4.8 mg/mL

Question: What about the “Effect on N. kaouthia venom hyaluronidase activity (in words)” value [3] of the same molecule?
Answer: inhibited

Question: And the “Effect on N. kaouthia venom PLA2 activity (in words)” value [4]?
Answer: consistently enhanced

Question: What about the “Hyaluronidase IC50, V. russelli venom” value [5, 10] of the same molecule?
Answer: ~4989 µg/mL

Question: What about the “Hyaluronidase ≥90% inhibition (concentration), V. russelli venom” value [5, 10] of the same molecule?
Answer: 6.0 to 9.6 mg/mL

Question: And the “Effect on V. russelli venom hyaluronidase activity (in words)” value [5]?
Answer: inhibited

Question: What about the “Gelatinase IC50, N. kaouthia venom” value [6, 7] of the same molecule?
Answer: 1850 µg/mL

Question: And the “Gelatinase ≥90% inhibition (concentration), N. kaouthia venom” value [6, 7]?
Answer: 1.32 mg/mL

Question: What about the “Effect on N. kaouthia venom gelatinase activity (in words)” value [6, 8] of the same molecule?
Answer: inhibited

Question: What does the source list for `Cc1ccc(C(=O)Nc2ccc(S(=O)(=O)O)c3cc(S(=O)(=O)O)cc(S(=O)(=O)O)c23)cc1NC(=O)c1cccc(NC(=O)Nc2cccc(C(=O)Nc3cc(C(=O)Nc4ccc(S(=O)(=O)O)c5cc(S(=O)(=O)O)cc(S(=O)(=O)O)c45)ccc3C)c2)c1` [Suramin]?
Answer: IC50 [1]: 2010 µM; PLA2 ≥90% inhibition (concentration), V. russelli venom [1]: 12.5 mM; IC50 [4]: 1520 ± 528 µM; PLA2 ≥90% inhibition (concentration), N. kaouthia venom [4]: 12.5 mM

Question: `CC1=C(CC/C(C)=C/CCC2=CC[C@H](C3=CC(=O)O[C@H]3O)O[C@H]2O)C(C)(C)CCC1` [Manoalide] was tested. Which IC50 [1] did it give?
Answer: 31.4 µM

Question: And the “PLA2 ≥90% inhibition (concentration), V. russelli venom” value [1]?
Answer: 1 mM

Question: And the IC50 [4]?
Answer: 777 µM

Question: What about the “PLA2 ≥90% inhibition (concentration), N. kaouthia venom” value [4] of the same molecule?
Answer: >1 mM

Question: For `O=C([O-])CC([S-])C(=O)[O-].[Au+].[Na+].[Na+]` (stereo not drawn) [Sodium aurothiomalate, sodium aurothiomalate], which “Effect on V. russelli venom PLA2 activity (in words)” value [1] is on record?
Answer: moderate, but statistically significant increase

Question: And the “Hyaluronidase ≥90% inhibition (concentration), N. kaouthia venom” value [3, 9]?
Answer: 136.30 µM

Question: What about the IC50 [3, 9] of the same molecule?
Answer: 42 µM

Question: What about the “Effect on N. kaouthia venom hyaluronidase activity (in words)” value [3] of the same molecule?
Answer: inhibited

Question: And the “Effect on N. kaouthia venom PLA2 activity (in words)” value [4]?
Answer: moderate, but statistically significant increase

Question: And the “Hyaluronidase ≥90% inhibition (concentration), V. russelli venom” value [5, 10]?
Answer: 373.25 µM

Question: And the IC50 [5, 10]?
Answer: 147 µM

Question: And the “Effect on V. russelli venom hyaluronidase activity (in words)” value [5]?
Answer: inhibited

Question: And the “Gelatinase ≥90% inhibition (concentration), N. kaouthia venom” value [6, 11]?
Answer: >208 µM

Question: And the IC50 [6, 11]?
Answer: 47 ± 30.4 µM
